Assay results as given in PubChem BioAssay AID328 (DTP/NCI, 2004).
Several values for one entry are separate records, joined by “and”; a condition that tells them apart may be missing. Equal values may be shown once. Inconclusive results and toxic doses are left out.

Test system: BDF1 mice, P388 leukemia ip, median survival T/C
Test: NCI In Vivo Anticancer Drug Screen. Data for tumor model P388 Leukemia (intraperitoneal) in B6D2F1 (BDF1) mice
Details: endpoint: median survival time, higher = longer survival
Outline: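 Each value expresses how treatment altered survival: treated-mouse outcome over vehicle-mouse outcome, both groups bearing the transplanted tumour.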

[1] = dose: 12.5 mg/kg/injection, schedule: Q01DX009 (ip), vehicle: saline
[2] = dose: 25.0 mg/kg/injection, schedule: Q01DX009 (ip), vehicle: saline
[3] = dose: 100.0 mg/kg/injection, schedule: Q04DX003 (ip), vehicle: Klucel (hydroxypropylcellulose) (HPC)
[4] = dose: 100.0 mg/kg/injection, schedule: Q04DX003 (ip), vehicle: saline with Tween-80
[5] = dose: 200.0 mg/kg/injection, schedule: Q04DX003 (ip), vehicle: saline with Tween-80
[6] = dose: 400.0 mg/kg/injection, schedule: Q04DX003 (ip), vehicle: saline with Tween-80
[7] = dose: 6.25 mg/kg/injection, schedule: Q01DX009 (ip), vehicle: saline
[8] = dose: 200.0 mg/kg/injection, schedule: Q04DX003 (ip), vehicle: Klucel (hydroxypropylcellulose) (HPC)
[9] = dose: 100.0 mg/kg/injection, schedule: Q01DX009 (ip), vehicle: saline with Tween-80
[10] = dose: 200.0 mg/kg/injection, schedule: Q01DX009 (ip), vehicle: saline with Tween-80
[11] = dose: 400.0 mg/kg/injection, schedule: Q01DX009 (ip), vehicle: saline with Tween-80
[12] = dose: 50.0 mg/kg/injection, schedule: Q04DX003 (ip), vehicle: saline with Tween-80

## CC(/C(=N/N(C)C)c1ccccc1)C(C)/C(=N\N(C)C)c1ccccc1 (centres undefined)
dose: 100.0 mg/kg/injection, schedule: Q04DX002 (ip), vehicle: saline with Tween-80
  T/C: 97 % of control
dose: 200.0 mg/kg/injection, schedule: Q04DX002 (ip), vehicle: saline with Tween-80
  T/C: 110 % of control
dose: 400.0 mg/kg/injection, schedule: Q04DX002 (ip), vehicle: saline with Tween-80
  T/C: 112 % of control

## CC(CO)S(=O)(=O)C(C)(C)C (centres undefined)
dose: 100.0 mg/kg/injection, schedule: Q04DX003 (ip), vehicle: saline
  T/C: 94 % of control
dose: 200.0 mg/kg/injection, schedule: Q04DX003 (ip), vehicle: saline
  T/C: 95 % of control
dose: 400.0 mg/kg/injection, schedule: Q04DX003 (ip), vehicle: saline
  T/C: 94 % of control

## Cc1cccc(N)n1 (tested in a mixture with another compound)
[1]
  T/C: 105 % of control
[2]
  T/C: 94 % of control
dose: 50.0 mg/kg/injection, schedule: Q01DX009 (ip), vehicle: saline
  T/C: 89 % of control

## Clc1ccc2nnnn2n1
dose: 16.25 mg/kg/injection, schedule: Q01DX009 (ip), vehicle: saline with Tween-80
  T/C: 99 % of control
dose: 32.5 mg/kg/injection, schedule: Q01DX009 (ip), vehicle: saline with Tween-80
  T/C: 101 % of control
dose: 40.0 mg/kg/injection, schedule: Q01DX009 (ip), vehicle: saline with Tween-80
  T/C: 97 % of control
dose: 80.0 mg/kg/injection, schedule: Q01DX009 (ip), vehicle: saline with Tween-80
  T/C: 111 % of control
dose: 130.0 mg/kg/injection, schedule: Q01DX009 (ip), vehicle: saline with Tween-80
  T/C: 151 % of control

## c1ccc(OCc2ccc(COc3ccccc3)cc2)cc1
dose: 6.25 mg/kg/injection, schedule: Q01DX009 (ip), vehicle: Klucel (hydroxypropylcellulose) (HPC)
  T/C: 96 % of control
dose: 12.5 mg/kg/injection, schedule: Q01DX009 (ip), vehicle: Klucel (hydroxypropylcellulose) (HPC)
  T/C: 96 % of control
dose: 25.0 mg/kg/injection, schedule: Q01DX009 (ip), vehicle: Klucel (hydroxypropylcellulose) (HPC)
  T/C: 92 % of control and 96 % of control
dose: 25.0 mg/kg/injection, schedule: Q04DX003 (ip), vehicle: Klucel (hydroxypropylcellulose) (HPC)
  T/C: 100 % of control
dose: 50.0 mg/kg/injection, schedule: Q04DX003 (ip), vehicle: Klucel (hydroxypropylcellulose) (HPC)
  T/C: 104 % of control
dose: 100.0 mg/kg/injection, schedule: Q01DX009 (ip), vehicle: Klucel (hydroxypropylcellulose) (HPC)
  T/C: 92 % of control
[3]
  T/C: 100 % of control

## COC(=O)C1C2C(C)CC3(CC12C)OCCO3 (centres undefined)
[4]
  T/C: 90 % of control
[5]
  T/C: 109 % of control
[6]
  T/C: 100 % of control

## Cc1nc2ccc(O)cc2cc1CBr
[7]
  T/C: 94 % of control and 105 % of control and 106 % of control
dose: 6.25 mg/kg/injection, schedule: Q04DX003 (ip), vehicle: saline
  T/C: 98 % of control
[1]
  T/C: 101 % of control and 113 % of control and 118 % of control
dose: 12.5 mg/kg/injection, schedule: Q04DX003 (ip), vehicle: saline
  T/C: 107 % of control
[2]
  T/C: 112 % of control and 119 % of control
dose: 25.0 mg/kg/injection, schedule: Q04DX003 (ip), vehicle: saline
  T/C: 107 % of control
dose: 40.0 mg/kg/injection, schedule: Q01DX009 (ip), vehicle: saline
  T/C: 103 % of control
dose: 50.0 mg/kg/injection, schedule: Q04DX003 (ip), vehicle: saline
  T/C: 107 % of control

## CSc1nc(NCc2ccc(Cl)cc2)c2[nH]c(C)nc2n1
dose: 0.78 mg/kg/injection, schedule: Q01DX009 (ip), vehicle: saline with Tween-80
  T/C: 122 % of control
dose: 1.56 mg/kg/injection, schedule: Q01DX009 (ip), vehicle: saline with Tween-80
  T/C: 101 % of control
dose: 3.13 mg/kg/injection, schedule: Q01DX009 (ip), vehicle: saline with Tween-80
  T/C: 97 % of control
dose: 6.25 mg/kg/injection, schedule: Q01DX009 (ip), vehicle: saline with Tween-80
  T/C: 93 % of control

## C=C1C(=O)OC2CC(C)C3C4OC4C(O)C3(C)C(O)C12 (centres undefined)
[7]
  T/C: 100 % of control
dose: 9.38 mg/kg/injection, schedule: Q01DX009 (ip), vehicle: saline
  T/C: 111 % of control
[1]
  T/C: 100 % of control
dose: 16.5 mg/kg/injection, schedule: Q01DX009 (ip), vehicle: saline
  T/C: 101 % of control
dose: 18.75 mg/kg/injection, schedule: Q01DX009 (ip), vehicle: saline
  T/C: 120 % of control
[2]
  T/C: 104 % of control and 108 % of control
dose: 37.5 mg/kg/injection, schedule: Q01DX009 (ip), vehicle: saline
  T/C: 112 % of control
dose: 56.25 mg/kg/injection, schedule: Q01DX009 (ip), vehicle: saline
  T/C: 110 % of control

## CC(C)=CCOc1ccc(C(=O)/C=C/c2ccccc2)c(O)c1
dose: 1.25 mg/kg/injection, schedule: Q01DX009 (ip), vehicle: Klucel (hydroxypropylcellulose) (HPC)
  T/C: 108 % of control
dose: 2.5 mg/kg/injection, schedule: Q01DX009 (ip), vehicle: Klucel (hydroxypropylcellulose) (HPC)
  T/C: 101 % of control
dose: 5.0 mg/kg/injection, schedule: Q01DX009 (ip), vehicle: Klucel (hydroxypropylcellulose) (HPC)
  T/C: 107 % of control
dose: 10.0 mg/kg/injection, schedule: Q01DX009 (ip), vehicle: Klucel (hydroxypropylcellulose) (HPC)
  T/C: 91 % of control
dose: 20.0 mg/kg/injection, schedule: Q01DX009 (ip), vehicle: Klucel (hydroxypropylcellulose) (HPC)
  T/C: 104 % of control
dose: 40.0 mg/kg/injection, schedule: Q01DX009 (ip), vehicle: Klucel (hydroxypropylcellulose) (HPC)
  T/C: 89 % of control

## O=C(/C(=N/Nc1ccccc1)c1ccccc1)c1ccccc1
[3]
  T/C: 104 % of control
[8]
  T/C: 100 % of control
dose: 400.0 mg/kg/injection, schedule: Q04DX003 (ip), vehicle: Klucel (hydroxypropylcellulose) (HPC)
  T/C: 113 % of control

## Cc1c(Cc2ccccc2)[n+](=O)c2ccccc2n1[O-]
[3]
  T/C: 100 % of control
[8]
  T/C: 105 % of control

## CCC(=O)O[C@H]1CC[C@H]2[C@@H]3C[C@H](C)C4=CC(=O)C=C[C@]4(C)[C@H]3C(=O)C[C@]12C
[9]
  T/C: 100 % of control
[10]
  T/C: 91 % of control
[11]
  T/C: 95 % of control

## CCC(SC(CC(=O)O)C(=O)O)C(=O)O (centres undefined)
dose: 12.5 mg/kg/injection, schedule: Q01DX001 (ip), vehicle: saline with Tween-80
  T/C: 100 % of control
dose: 25.0 mg/kg/injection, schedule: Q01DX001 (ip), vehicle: saline with Tween-80
  T/C: 99 % of control
dose: 50.0 mg/kg/injection, schedule: Q01DX001 (ip), vehicle: saline with Tween-80
  T/C: 90 % of control

## CC(C)C(=O)[O][Sn]([c]1ccccc1)([c]1ccccc1)[c]1ccccc1
dose: 12.5 mg/kg/injection, schedule: Q01DX009 (ip), vehicle: saline with Tween-80
  T/C: 123 % of control

## COc1cc(/C=N/Nc2ccc([N+](=O)[O-])cc2)cc(OC)c1OC
[12]
  T/C: 100 % of control
[9]
  T/C: 95 % of control
[4]
  T/C: 95 % of control
[10]
  T/C: 95 % of control
[5]
  T/C: 105 % of control
[11]
  T/C: 100 % of control

## C/C=C/C(OCC)OCC
dose: 6.25 mg/kg/injection, schedule: Q04DX003 (ip), vehicle: water
  T/C: 95 % of control
dose: 12.5 mg/kg/injection, schedule: Q01DX009 (ip), vehicle: water
  T/C: 105 % of control
dose: 12.5 mg/kg/injection, schedule: Q04DX003 (ip), vehicle: water
  T/C: 91 % of control
dose: 25.0 mg/kg/injection, schedule: Q01DX009 (ip), vehicle: water
  T/C: 91 % of control
dose: 25.0 mg/kg/injection, schedule: Q04DX003 (ip), vehicle: water
  T/C: 92 % of control
dose: 50.0 mg/kg/injection, schedule: Q01DX009 (ip), vehicle: water
  T/C: 100 % of control
dose: 50.0 mg/kg/injection, schedule: Q04DX003 (ip), vehicle: water
  T/C: 105 % of control
dose: 100.0 mg/kg/injection, schedule: Q01DX009 (ip), vehicle: water
  T/C: 98 % of control
dose: 100.0 mg/kg/injection, schedule: Q04DX003 (ip), vehicle: water
  T/C: 113 % of control
dose: 200.0 mg/kg/injection, schedule: Q01DX009 (ip), vehicle: water
  T/C: 109 % of control
dose: 200.0 mg/kg/injection, schedule: Q04DX003 (ip), vehicle: water
  T/C: 111 % of control and 113 % of control
dose: 300.0 mg/kg/injection, schedule: Q04DX003 (ip), vehicle: water
  T/C: 111 % of control

## c1coc(CNc2ncnc3nc[nH]c23)c1
[9]
  T/C: 95 % of control
[4]
  T/C: 91 % of control
[10]
  T/C: 86 % of control
[5]
  T/C: 95 % of control
[11]
  T/C: 100 % of control
[6]
  T/C: 86 % of control

## COCC(O)CCl (centres undefined)
[12]
  T/C: 100 % of control
[4]
  T/C: 100 % of control and 110 % of control
[5]
  T/C: 100 % of control and 110 % of control
